Laboratory results: patent US20260240852A1, “Use of Oral JAK Kinase Inhibitors to Treat Lichen Planus” (Mayo Foundation for Medical Education and Research, priority 2023, published 2026)
“And” between values parts separate entries of the source, which are not always exact repeats. Equal values may be shown once.

Legend:
Assay type in all cases: in vivo, human
[1] = test system: patients with biopsy-proven cutaneous LP; experiment: Open-label, single-arm phase 2 trial of oral baricitinib in cutaneous lichen planus: clinical efficacy; details: dose escalation, after 12 weeks of 4 mg daily, five patients
[2] = Adverse event assessment in the baricitinib LP trial (CTCAE version 5.0)
Protocol: (§1) Assessments of treatment efficacy, adverse events (AEs), and QoL were completed at each study visit. All lesions were annotated, photographed, and scored using the mCAILS criteria. 16 All clinical assessments were performed by the principal investigator and co-investigators (ARM, MRP, SZ) with questionable lesions scored by 2 investigators. The revised National Cancer Institute Common Terminology Criteria for Adverse Events version 5.0 was used for AE reporting. Due to travel issues, one patient withdrew from the study after week 8. An intention-to-treat (ITT) analysis was used with the patient's last observation to impute week 16 data.

[3] = test system: patients with biopsy-proven cutaneous LP; experiment: Open-label, single-arm phase 2 trial of oral baricitinib in cutaneous lichen planus: clinical efficacy
Protocol: A clinical study was conducted in which 12 patients with biopsy-proven LP were trialed on oral baricitinib at a daily dose of 2 mg for 16 weeks. Other inclusionary criteria included having at least 4 lesions of LP at baseline. The mean age of participants was 63.6 years. The vast majority were female and identified as Caucasian. A quarter were under-represented minorities. The mean duration of disease for all patients was 2.2 years. Five of the 12 participants had hypertrophic LP, and 11 were refractory to prior therapy. All but one patient had previously trialed topical steroids. Almost half (41.7%) had failed oral or IM steroids.
The primary outcome of this study was PGA at week 16, with treatment response defined as greater than 50% improvement with a PGA grade of 0 to 3. Non-responsive was defined as PGA 4 and 5. Secondary endpoints included changes from baseline to week 16 in mCAILS, pruritus scores, Skindex-16, BSA, and total lesion count.
Trial Design. A single-arm, open-label, phase 2, […] trial was conducted at Mayo Clinic, Arizona (ClinicalTrials.gov identifier NCT05188521). The Mayo Clinic Institutional Review Board approved the study (IRB 21-003075), and all patients provided written informed consent. Twelve patients with biopsy-proven cutaneous LP were administered oral baricitinib 2 mg once daily for 16-weeks. The primary endpoint was an overall response by Physician Global Assessment (PGA) of skin at week 16, with treatment response defined as PGA 0 to 3 (with ≥50% score reduction). Secondary outcomes were changes in mCAILS, total body lesion count, affected BSA, pruritus numeric rating scale (NRS), pruritus verbal rating scale (VRS), pruritus visual analog scale (VAS), pain NRS, and Skindex-16. Patients were evaluated at baseline (week 0) and weeks 2, 4, 8, 12, and 16. […] Complete responders at week 16 were reassessed at week 20 and partial responders at week 16 were reassessed at week 32, after an off-therapy period of 4 weeks, respectively.
as §1
Eligibility Criteria. Patients aged ≥18 years with biopsy-proven cutaneous LP were eligible for the trial. Both treatment-naïve and treatment-refractory disease were included. Key exclusion criteria included predominantly non-cutaneous variants of LP, active infections, and other active inflammatory cutaneous conditions.
Statistical Analysis. Patient demographics, clinical characteristics, and outcomes were summarized as mean, standard deviation, median, interquartile range for continuous variables, and frequency and percentages for categorical variables. Primary and secondary outcome differences between baseline and week 16 were compared using Wilcoxon signed rank test for continuous variables and McNemar's test for binary variables. One patient withdrew from the study after week 8, and this patient's last observation (week 8) was used to impute week 16 data in the ITT analysis.
Exact binomial method was used to calculate the treatment response rate at week 16 and its corresponding 95% confidence interval. All analyses were conducted with R version 4.1.2 (R Foundation for Statistical Computing, Vienna, Austria). The cut-off for statistical significance was set as 0.05.

[4] = five dose-escalation patients at week 16 (after 2 mg daily), start of dose escalation
[5] = oral 2 mg once daily, baseline to week 16, ITT
[6] = oral 2 mg once daily, baseline to week 16, ITT, P 0.002
[7] = oral 2 mg once daily, baseline to week 16, ITT, P 0.003

Structure (SMILES): CCS(=O)(=O)N1CC(CC#N)(n2cc(-c3ncnc4[nH]ccc34)cn2)C1 [baricitinib]
- Patients almost clear (PGA grade 1) [1]: 20.0%
- Patients completely clear of disease (PGA grade 0) [1]: 60.0%
- Patients with slight improvement (PGA grade 4) [1]: 20.0%
- Total adverse events ([2]; 12 patients, oral baricitinib): 12
- AEs leading to discontinuation ([2]; in vivo): No AEs led to the discontinuation
- Serious adverse events ([2]; in vivo): Serious adverse events did not occur
- Adverse events related / probably related to the study drug ([2]; low neutrophil count (neutropenia), mild, not deemed serious): one and A single AE of neutropenia
- AEs that were mild ([2]; of 12 AEs): 58.3%
- AEs that were moderate ([2]; of 12 AEs): 25.0%
- Adverse events unrelated or unlikely to be related to baricitinib ([2]; of 12 AEs): 11
- Absolute neutrophil count of the drug-related AE ([2]; the one mild AE deemed probably related to the study drug): 7.8e+08 L⁻¹
- Patients with PGA grade 1 [3, 4]: 80.0%
- Patients with PGA grade 4 [3, 4]: 20%
- Mean total body lesion count ([3]; oral 2 mg daily, by week 16, 146 at baseline (first report)): 8
- Treatment response (PGA), patients ([3]; oral 2 mg daily, week 1): 37.5%
- Treatment response (PGA), patients ([3]; oral 2 mg daily, week 12): 100%
- Patients with a PGA grade of 0 or 1 (completely clear and almost clear) ([3]; oral 2 mg daily, week 16 (primary endpoint), all but one patient): 90.9%
- BSA affected (%), Range, Difference [3, 5]: −9.8 to −0.1%
- Pain NRS, Range, Difference [3, 5]: −8.0 to 0.0
- Pruritus NRS, Range, Difference [3, 5]: −8.0 to −0.0
- Pruritus VAS, Range, Difference [3, 5]: −7.7 to 1.5
- Skindex-16 emotional, Range, Difference [3, 5]: −34.0 to 0.0
- Skindex-16 functional, Range, Difference [3, 5]: −15.0 to 0.0
- Skindex-16 overall, Range, Difference [3, 5]: −58.0 to 0.0
- Skindex-16 symptom, Range, Difference [3, 5]: −19.0 to 0.0
- Total Body Lesion Count, Range, Difference [3, 5]: −570.0 to −4.0
- mCAILS, Range, Difference [3, 5]: −14.6 to −5.0
- BSA affected (%), Mean (SD), Difference [3, 6]: −3.9 (2.9) %
- Total Body Lesion Count, Mean (SD), Difference [3, 6]: −134.8 (157.0)
- mCAILS, Mean (SD), Difference [3, 6]: −10.6 (2.9)
- Pruritus NRS, Mean (SD), Difference [3, 7]: −5.3 (2.6)
- Pruritus VAS, Mean (SD), Difference [3, 7]: −5.0 (2.6)
- Pain NRS, Mean (SD), Difference ([3]; oral 2 mg once daily, baseline to week 16, ITT, P 0.005): −5.6 (2.7)
- Skindex-16 overall, Mean (SD), Difference ([3]; oral 2 mg once daily, baseline to week 16, ITT, P 0.008): −37.3(18.3)
- Pain NRS4, patients achieving ([3]; oral 2 mg once daily, week 16): 66.7%
- Pruritus NRS improvement >4 from baseline (NRS4), patients achieving ([3]; oral 2 mg once daily, week 16): 75.0%
- PGA Non-responsive (n, %) ([3]; oral 2 mg once daily, week 16, ITT, 12 patients): 16.7%
- PGA Responsive (n, %) ([3]; oral 2 mg once daily, week 16, ITT, 12 patients, response = PGA 0 to 3 with ≥50% score reduction): 83.3%
- BSA affected (%), Mean (SD), Week 16 ([3]; oral 2 mg once daily, week 16, ITT, baseline 4.9 (3.7), P 0.002): 1.0% and 1.0 (2.5) %
- Skindex-16 functional, Mean (SD), Week 16 ([3]; oral 2 mg once daily, week 16, ITT, baseline 11.6 (10.2), P 0.012): 4.5 (9.0)
- mCAILS, Mean (SD), Week 16 ([3]; oral 2 mg once daily, week 16, ITT, baseline 12.3 (3.2), P 0.002): 1.7 (3.3)
- Skindex-16 symptom, Mean (SD), Week 16 ([3]; oral 2 mg once daily, week 16, ITT, baseline 16.4 (6.0), P 0.005): 3.7 (7.0)
- Skindex-16 emotional, Mean (SD), Week 16 ([3]; oral 2 mg once daily, week 16, ITT, baseline 29.9 (9.0), P 0.003): 9.0 (12.4)
- Skindex-16 overall, Mean (SD), Week 16 ([3]; oral 2 mg once daily, week 16, ITT, baseline 59.0 (22.1), P 0.008): 16.9 (28.7)
- Skindex-16 functional, Range, Week 16 ([3]; oral 2 mg once daily, week 16, ITT, baseline range 0.0-30.0): 0.0-30.0
- BSA affected (%), Range, Week 16 ([3]; oral 2 mg once daily, week 16, ITT, baseline range 0.1-12.0): 0.0-8.5%
- Pruritus NRS, Range, Week 16 ([3]; oral 2 mg once daily, week 16, ITT, baseline range 1.0-10.0): 0.0-10.0
- Pruritus VAS, Range, Week 16 ([3]; oral 2 mg once daily, week 16, ITT, baseline range 2.7-8.8): 0.0-9.0
- Pain NRS, Range, Week 16 ([3]; oral 2 mg once daily, week 16, ITT, baseline range 4.0-10.0): 0.0-10.0
- Skindex-16 symptom, Range, Week 16 ([3]; oral 2 mg once daily, week 16, ITT, baseline range 4.0-24.0): 0.0-24.0
- Total Body Lesion Count, Range, Week 16 ([3]; oral 2 mg once daily, week 16, ITT, baseline range 4.0-600.0): 0.0-117.0
- mCAILS, Range, Week 16 ([3]; oral 2 mg once daily, week 16, ITT, baseline range 7.0-18.6): 0.0-8.9
- Skindex-16 emotional, Range, Week 16 ([3]; oral 2 mg once daily, week 16, ITT, baseline range 17.0-42.0): 0.0-42.0
- Skindex-16 overall, Range, Week 16 ([3]; oral 2 mg once daily, week 16, ITT, baseline range 35.0-96.0): 0.0-96.0
- Overall Skindex-16 score, mean decrease from baseline to week 16 ([3]; oral 2 mg once daily, SD 18.3, p=0.008): 37.3
- Treatment response (PGA), patients ([3]; week 20, after 4 weeks of being off-therapy): 100%
